Reference: PubChem BioAssay (NCI)
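Step 1: Grow cells in 96-well plates. Step 2: Expose to compound for 48 hours at 5 concentrations. Step 3: Interpolate endpoints linearly; if unreached, use highest concentration. GI50 = concentration required for 50% inhibition of growth. Definition used: TGI = concentration required for complete inhibition of growth.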

Tests used:
Assay in all cases: NCI tumour cell line growth inhibition, 48 h
DLD-1 colon = tested on: DLD-1 colon
DMS 273 small cell lung = tested on: DMS 273 small cell lung
HOP-18 NSCLC = tested on: HOP-18 NSCLC
KM20L2 colon = tested on: KM20L2 colon
LXFL 529 NSCLC = tested on: LXFL 529 NSCLC
M19-MEL melanoma = tested on: M19-MEL melanoma
RXF-631 renal = tested on: RXF-631 renal
SNB-78 CNS = tested on: SNB-78 CNS
MDA-N = tested on: MDA-N
P388/ADR leukemia = tested on: P388/ADR leukemia
SN12K1 renal = tested on: SN12K1 renal

| SMILES | TGI (DLD-1 colon) | TGI (DMS 273 small cell lung) | TGI (HOP-18 NSCLC) | TGI (KM20L2 colon) | TGI (LXFL 529 NSCLC) | TGI (M19-MEL melanoma) | TGI (RXF-631 renal) | TGI (SNB-78 CNS) | TGI (MDA-N) | other results |
| --- | --- | --- | --- | --- | --- | --- | --- | --- | --- | --- |
| CN(C)C(=S)/N=c1\ssc(=S)n1Cc1ccco1 | > 100 µM | > 42.2 µM | > 100 µM | > 100 µM | > 100 µM | > 100 µM | > 100 µM | > 100 µM | – | – |
| C=C(C)C1CCC2=CC(CC3(C)OC3C3=CC(C(=O)OC)=C(C1)O3)OC2=O (stereo not drawn) | – | – | – | – | – | – | – | – | > 100 µM | – |
| COc1cccc2c(SCC(=O)Nc3ccccc3-c3ccccc3NC(=O)CSc3c4ccccc4nc4c(OC)cccc34)c3ccccc3nc12 | > 100 µM | > 100 µM | – | > 100 µM | – | – | > 100 µM | > 100 µM | – | – |
| CCCS(=O)c1nc(COC(=O)NC)c(COC(=O)NC)n1C (stereo not drawn) | > 100 µM | > 100 µM | > 100 µM | > 100 µM | > 100 µM | > 100 µM | > 100 µM | > 100 µM | – | TGI (P388/ADR leukemia): > 100 µM; TGI (SN12K1 renal): > 100 µM |
| O=C1C(Cl)=C(Cl)C(=O)N1c1cccc(C(F)(F)F)c1 | > 100 µM | > 100 µM | > 100 µM | > 100 µM | > 100 µM | > 100 µM | > 100 µM | > 100 µM | – | – |
| CC(=O)c1ccc2c3c1[C@H]1O[C@H]1c1cccc(c1-3)[C@@H]1O[C@H]21 | – | – | – | – | – | – | – | – | 5.86 µM | – |
| [Cl][Hg][c]1ccc2ccccc2c1 | – | – | – | – | – | – | – | – | 2.88 µM | GI50 (MDA-N): 1.5 µM |
| COc1cc([C@@H]2OC(=O)C3C2C(=O)O[C@H]3c2ccc(O)c(OC)c2)ccc1O (stereo partly drawn) | > 100 µM | > 100 µM | > 100 µM | > 100 µM | > 100 µM | > 100 µM | > 100 µM | > 100 µM | – | – |
| Oc1ccc(Cl)cc1Sc1cc(Cl)ccc1O | – | – | – | – | – | – | – | – | 26.1 µM | – |
| CC(=O)[CH-]C(=O)c1ccccc1.CC(=O)[CH-]C(=O)c1ccccc1.CC[C@H](/C=C/C(C)[C@H]1CCC2[C@@H]3CC=C4C[C@@H]([O-])CC[C@]4(C)C3CC[C@@]21C)C(C)C.CC[C@H](/C=C/C(C)[C@H]1CCC2[C@@H]3CC=C4C[C@@H]([O-])CC[C@]4(C)C3CC[C@@]21C)C(C)C.Cl.[Ti+4] (stereo partly drawn) | > 25 µM | > 25 µM | > 25 µM | > 25 µM | > 25 µM | > 25 µM | – | – | – | GI50 (DLD-1 colon): > 25 µM; GI50 (DMS 273 small cell lung): > 25 µM; GI50 (HOP-18 NSCLC): > 25 µM; GI50 (KM20L2 colon): > 25 µM; GI50 (LXFL 529 NSCLC): > 25 µM; GI50 (M19-MEL melanoma): > 25 µM |
| CN(C)N=Nc1cccc(C(N)=O)c1 | > 100 µM | > 100 µM | > 100 µM | > 100 µM | > 100 µM | > 100 µM | – | > 100 µM | – | – |
| Cc1c(NC(=O)Nc2c(Cl)cccc2Cl)c(=O)n(-c2ccccc2)n1C | – | – | – | – | – | – | – | – | > 100 µM | – |
| O=C1NC2C3CC(OCc4ccccc4)(OCc4ccccc4)C2OC3O1 (stereo not drawn) | > 50 µM | > 50 µM | > 50 µM | – | – | > 50 µM | – | – | – | – |
| Nn1c(-c2cccc(Cl)c2)nc2ccccc2c1=O | > 100 µM | > 100 µM | > 100 µM | > 100 µM | > 100 µM | – | > 100 µM | > 100 µM | – | – |
| O=C(O)/C(Cl)=C(Cl)/C=N/NC(=O)c1cc2ccccc2cc1O | > 100 µM | 45.2 µM | 80.5 µM | 87.2 µM | > 100 µM | 75.4 µM | > 100 µM | > 100 µM | – | – |
| COC(=O)c1ccc(C(=O)OC)c2nc3cc(Cl)ccc3nc12 | > 100 µM | > 100 µM | > 100 µM | > 100 µM | > 100 µM | > 100 µM | > 100 µM | – | – | – |
| Cc1ccc(C2[C@H]3C(=O)N(c4ccc(Cc5ccc(N6C(=O)[C@@H]7ON(c8ccccc8)C(c8ccc(C)cc8)[C@@H]7C6=O)cc5)cc4)C(=O)[C@H]3ON2c2ccccc2)cc1 (stereo partly drawn) | > 100 µM | > 100 µM | > 100 µM | > 100 µM | > 100 µM | > 100 µM | – | – | – | – |
| CC(C)N1C(C)[C@@H](c2ccccc2)O[P@@]1(=O)CC1=CCCCC1 (stereo partly drawn) | > 100 µM | – | > 100 µM | > 100 µM | > 100 µM | > 100 µM | – | – | – | – |
| NC(Cc1cccnn1)C(=O)O (stereo not drawn) | – | – | – | – | – | – | – | – | > 100 µM | – |
| O=C1CC(Cc2n[nH]c3c2CCCC3)CC(=O)N1 | – | – | – | – | – | – | – | – | > 100 µM | – |
| Cc1cc2c3c([n+](C)c4ccc(F)cc4c3c1)-c1cc(F)ccc1N2C | – | – | – | – | – | – | – | – | > 100 µM | GI50 (MDA-N): 14.3 µM |

| SMILES | TGI (DLD-1 colon) | TGI (DMS 273 small cell lung) | TGI (HOP-18 NSCLC) | TGI (KM20L2 colon) | TGI (LXFL 529 NSCLC) | TGI (M19-MEL melanoma) | TGI (RXF-631 renal) | TGI (SNB-78 CNS) | TGI (MDA-N) | other results |
| --- | --- | --- | --- | --- | --- | --- | --- | --- | --- | --- |
| CN(CCCN1C(=O)c2cccc3cc([N+](=O)[O-])cc(c23)C1=O)CCN(C)CCCN1C(=O)c2cccc3cc([N+](=O)[O-])cc(c23)C1=O | – | > 39.3 µM | > 39.3 µM | > 39.3 µM | > 39.3 µM | > 39.3 µM | > 39.3 µM | > 39.3 µM | – | – |
| O=[N+]([O-])c1ccc(C2SCc3nc4ccccc4n32)cc1 (stereo not drawn) | > 100 µM | > 100 µM | > 100 µM | > 100 µM | > 100 µM | > 100 µM | > 100 µM | > 100 µM | – | – |
| C[C@]12CC(C=O)C(=O)C(O)=C1CC[C@@H]1C2CC[C@@]2(C)C1CC[C@]2(C)O (stereo partly drawn) | 34.5 µM | 46.8 µM | – | 52.9 µM | 31.6 µM | 44.8 µM | 72.7 µM | 35.8 µM | – | – |
| COc1c(-c2ccc3c(c2)OCO3)oc2cc(O)cc(O)c2c1=O | – | – | – | – | – | – | – | – | > 100 µM | – |
| COc1cc2c3cc1Oc1c(OC)c(OC)cc4c1[C@@H](Cc1ccc(O)c(c1)Oc1ccc(cc1)C[C@@H]3N(C)CC2)N(C)CC4 | 56.3 µM | 34 µM | – | 21.1 µM | 24.8 µM | 26.2 µM | – | > 100 µM | – | – |
| O=C(NCCCl)Nc1ccccc1 | – | – | – | – | – | – | – | – | > 100 µM | – |
| COC(=O)C(=O)C(C(C)=O)C(=O)NCc1ccccc1 (stereo not drawn) | > 100 µM | > 100 µM | > 100 µM | > 100 µM | > 100 µM | > 100 µM | – | > 100 µM | – | – |
| CCCCCN(CCCCC)C(=O)[C@H](CCC(=O)O)NC(=O)c1cc2ccccc2[nH]1 | > 100 µM | > 100 µM | – | > 100 µM | > 100 µM | > 100 µM | – | > 100 µM | – | – |
| CSc1ccc(NC(=O)Nc2cc(C)ccn2)cc1 | – | – | – | – | – | – | – | – | > 100 µM | – |
| COc1cc(C2c3cc4c(cc3[C@@H](Nc3ccc([N+](=O)[O-])cc3)C3COC(=O)[C@H]23)OCO4)cc(OC)c1O (stereo partly drawn) | 19.2 µM | 5.65 µM | 77.2 µM | 14.8 µM | 78.3 µM | 22.8 µM | 11.4 µM | > 71.5 µM | > 100 µM | GI50 (DLD-1 colon): 3.15 µM; GI50 (DMS 273 small cell lung): 0.274 µM; GI50 (M19-MEL melanoma): 0.942 µM; TGI (P388/ADR leukemia): 10.7 µM; TGI (SN12K1 renal): 2.88 µM |
| COC(=O)C12C34C=CC5(CCC6(C=CC1(CC3)O6)C52C(=O)OC)O4 (stereo not drawn) | – | > 100 µM | > 100 µM | > 100 µM | > 100 µM | > 100 µM | > 100 µM | > 100 µM | – | – |
| CNCC(=O)NC(CO)C(=O)NC(CO)C(=O)NC1C(C(N)=O)OC(n2ccc(N)nc2=O)C(O)C1O (stereo not drawn) | – | – | – | – | – | – | – | – | > 50 µg/mL | GI50 (MDA-N): 12.4 µg/mL |
| CCC[CH2][Sn]([CH2]CCC)([O]C(=O)c1cc(F)ccc1F)[O]C(=O)c1cc(F)ccc1F | 2.16 µM | 2.45 µM | 3.67 µM | 3.37 µM | 0.491 µM | 1.8 µM | 0.363 µM | 1.86 µM | – | GI50 (DLD-1 colon): 0.915 µM; GI50 (DMS 273 small cell lung): 1.2 µM; GI50 (HOP-18 NSCLC): 2.21 µM; GI50 (KM20L2 colon): 1.76 µM; GI50 (LXFL 529 NSCLC): 0.176 µM; GI50 (M19-MEL melanoma): 0.537 µM; GI50 (RXF-631 renal): 0.154 µM; GI50 (SNB-78 CNS): 0.419 µM |
| C=C1C(=O)O[C@@H]2CC(CO)=C([C@@H](C)CCCO)[C@@H](OC(=O)/C(C)=C\C)[C@H]12 | – | – | – | – | – | – | – | – | > 67.3 µM | – |
| O=C(COC(=O)c1cccc2c(=O)c3ccccc3[nH]c12)Nc1ccc(Cl)cc1 | > 100 µM | – | > 100 µM | > 100 µM | > 100 µM | > 100 µM | – | > 100 µM | – | – |
| CCCCCCCCC(C)CCCCCCCCC(=O)OCC(COP(=O)([O-])OCC[N+](C)(C)C)OC(=O)CCCCCCCCC(C)CCCCCCCC (stereo not drawn) | > 100 µM | > 100 µM | > 100 µM | > 100 µM | > 100 µM | > 100 µM | > 100 µM | > 100 µM | – | – |
| C[C@]12Cc3conc3C(O)=C1CC[C@@H]1C2CC[C@@]2(C)C1CC[C@]2(C)O (stereo partly drawn) | 57.5 µM | 26.3 µM | – | 42.7 µM | 35.7 µM | 41.9 µM | > 100 µM | 63.4 µM | – | – |
| Cc1ccc(C)c(NC(=O)C(=O)C2C(=O)N(c3ccccc3)N=C2N)c1 (stereo not drawn) | > 100 µM | > 100 µM | > 100 µM | > 100 µM | > 100 µM | > 100 µM | > 100 µM | > 100 µM | – | – |
| O=C1NC2(CCCCC2)C2CCCCC=C12 (stereo not drawn) | > 100 µM | > 100 µM | > 100 µM | – | > 100 µM | > 100 µM | – | > 100 µM | – | – |
| CCOC(=O)/C(C#N)=C\Sc1ccccc1 | 45.5 µM | 41.9 µM | > 100 µM | 51.9 µM | 57.3 µM | 63.8 µM | 53.2 µM | > 100 µM | – | – |
| Cn1c2c(c3ccccc3c1=O)C(=O)c1ccccc1-2 | – | – | – | – | – | – | – | – | > 100 µM | – |
